Data published in patent US20150087605A1 (priority 2013, published 2015).
Where two headings read alike, the source gives them in different places.

Experiments:
[1] = target: LF protease activity (Bacillus anthracis, UniProt P15917); assay: biochemical
[2] = test system: RAW 264.7 macrophages treated with LeTx (PA and LF); assay: cells; details: Mus musculus, RAW264.7, read-out: IC50 Cell Viability
[3] = target: Anthrax Lethal Factor (LF) (Bacillus anthracis, UniProt P15917); assay: biochemical; assay type: binding
Sequence of Anthrax Lethal Factor (LF) (P15917 34-809 limits assumed): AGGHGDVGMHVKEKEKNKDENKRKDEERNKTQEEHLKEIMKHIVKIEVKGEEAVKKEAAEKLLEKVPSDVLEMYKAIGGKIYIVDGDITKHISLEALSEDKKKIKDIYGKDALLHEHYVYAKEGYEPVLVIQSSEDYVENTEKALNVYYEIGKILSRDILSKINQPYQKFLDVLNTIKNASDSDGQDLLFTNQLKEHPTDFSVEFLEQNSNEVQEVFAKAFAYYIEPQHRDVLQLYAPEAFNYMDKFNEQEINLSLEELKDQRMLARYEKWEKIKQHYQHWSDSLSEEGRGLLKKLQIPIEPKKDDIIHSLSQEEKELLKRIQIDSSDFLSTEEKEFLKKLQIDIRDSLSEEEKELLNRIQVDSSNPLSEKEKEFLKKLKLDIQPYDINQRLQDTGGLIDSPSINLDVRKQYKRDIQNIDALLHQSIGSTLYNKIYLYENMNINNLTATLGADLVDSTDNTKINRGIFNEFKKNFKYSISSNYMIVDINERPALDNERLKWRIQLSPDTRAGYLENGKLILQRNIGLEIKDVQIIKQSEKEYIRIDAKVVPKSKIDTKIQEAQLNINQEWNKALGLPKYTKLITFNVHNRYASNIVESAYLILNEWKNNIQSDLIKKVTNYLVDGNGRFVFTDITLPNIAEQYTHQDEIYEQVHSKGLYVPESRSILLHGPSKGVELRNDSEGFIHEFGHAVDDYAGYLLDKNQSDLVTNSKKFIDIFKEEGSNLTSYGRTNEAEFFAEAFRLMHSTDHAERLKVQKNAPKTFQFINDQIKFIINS

[4] = target: COX-1 (Homo sapiens, UniProt P23219); details: read-out: IC50 COX-1; cited from earlier work
Sequence of COX-1 (P23219 24-599): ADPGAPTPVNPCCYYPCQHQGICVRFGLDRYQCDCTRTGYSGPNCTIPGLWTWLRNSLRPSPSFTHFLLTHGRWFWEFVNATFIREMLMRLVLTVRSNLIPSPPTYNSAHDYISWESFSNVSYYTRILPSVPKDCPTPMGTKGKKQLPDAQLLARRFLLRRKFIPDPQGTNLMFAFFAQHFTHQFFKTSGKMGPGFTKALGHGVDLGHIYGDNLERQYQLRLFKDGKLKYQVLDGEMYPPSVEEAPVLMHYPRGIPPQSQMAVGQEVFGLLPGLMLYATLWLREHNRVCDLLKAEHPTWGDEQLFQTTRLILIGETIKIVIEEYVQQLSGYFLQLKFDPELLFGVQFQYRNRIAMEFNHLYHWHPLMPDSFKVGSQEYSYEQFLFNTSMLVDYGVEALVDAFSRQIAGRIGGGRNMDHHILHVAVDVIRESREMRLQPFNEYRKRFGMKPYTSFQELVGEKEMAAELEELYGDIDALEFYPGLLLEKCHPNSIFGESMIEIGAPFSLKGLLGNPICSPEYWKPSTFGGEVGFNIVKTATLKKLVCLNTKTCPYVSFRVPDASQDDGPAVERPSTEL

[5] = target: COX-2 (Homo sapiens, UniProt P35354); details: read-out: IC50 COX-2; cited from earlier work
Sequence of COX-2 (P35354 18-604): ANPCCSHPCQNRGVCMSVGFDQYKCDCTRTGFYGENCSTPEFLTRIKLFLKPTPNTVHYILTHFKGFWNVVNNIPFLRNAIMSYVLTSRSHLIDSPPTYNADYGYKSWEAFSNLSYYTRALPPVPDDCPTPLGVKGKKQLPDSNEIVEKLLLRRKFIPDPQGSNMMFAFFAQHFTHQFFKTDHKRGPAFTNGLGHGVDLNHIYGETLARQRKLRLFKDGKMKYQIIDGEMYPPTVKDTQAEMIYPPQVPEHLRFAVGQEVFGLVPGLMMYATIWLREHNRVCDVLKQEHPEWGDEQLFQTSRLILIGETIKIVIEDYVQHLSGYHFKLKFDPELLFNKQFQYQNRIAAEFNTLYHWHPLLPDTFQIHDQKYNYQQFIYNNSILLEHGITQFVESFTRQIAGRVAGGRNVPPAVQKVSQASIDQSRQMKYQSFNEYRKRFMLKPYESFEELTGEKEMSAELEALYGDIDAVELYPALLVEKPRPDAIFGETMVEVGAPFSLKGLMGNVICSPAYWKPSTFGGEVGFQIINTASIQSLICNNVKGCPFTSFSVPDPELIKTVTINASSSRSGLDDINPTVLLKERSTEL

[6] = in vivo, cited from earlier work
[7] = test system: RAW 264.7 macrophages treated with LeTx (PA and LF)

Sequence of LF protease activity (P15917 34-809 limits assumed): as the sequence (P15917 34-809 limits assumed) above

## CC1=C(CC(=O)NCCCN=[N+]=[N-])c2cc(F)ccc2/C1=C\c1ccc([S+](C)[O-])cc1 (stereo not shown) [sulindac-N3]
[1]; IC50 Protease Activity
  IC50: 420 µM
[2]
  IC50: 90.1 µM

## CC1=C(CC(=O)O)c2cc(F)ccc2/C1=C\c1ccc([S+](C)[O-])cc1 (stereo not shown) [Sulindac]
[3]
  Kd: 2.8 µM
[1]; IC50 Protease Activity
  IC50: 173 µM
[2]
  IC50: 31.7 µM
[4]
  IC50: 41.3 µM
[5]
  IC50: 25 µM
[6]; 150 mg
  mean half-life: 7.8 h
[6]
  maximum concentration in human blood plasma: 5.71 ± 2.17 µg/mL

## COc1ccc2cc([C@H](C)C(=O)O)ccc2c1 [Naproxen, (S)-(+)-6-Methoxy-α-methyl-2-naphthaleneacetic acid]
[1]
  inhibition of LF protease activity (in words): failed to inhibit LF
[7]
  inhibition of LeTx cytotoxicity (in words): failed to inhibit LeTx

## CSc1ccc(/C=C2/C(C)=C(CC(=O)O)c3cc(F)ccc32)cc1 [sulindac sulfide, Sulindac Sulfide]
[1]; IC50 Protease Activity
  IC50: 19.1 µM
[2]
  IC50: 20.4 µM

## CCCCc1ccc(C(=O)NCCCN=[N+]=[N-])nc1 [fusaric acid-N3]
[1]; IC50 (fluorogenic substrate assay)
  IC50: 1100 µM
[2]
  IC50: 164 µM

## CCCCc1ccc(C(=O)O)nc1 [Fusaric Acid]
[3]
  Kd: 4.5 µM
[1]; IC50 Protease Activity
  IC50: 530 µM
[2]
  IC50: 75.3 µM

## CCCCc1ccc(C(=O)NCCCn2cc(CNC(C)=O)nn2)nc1 [fusaric acid-bMR]
[1]; IC50 Protease Activity
  IC50: 1.2 ± 0.36 µM
[7]; mouse
  IC50: 0.721 µM

## CC1=C(CC(=O)O)c2cc(F)ccc2/C1=C\c1ccc(S(C)(=O)=O)cc1 [sulindac sulfone, Sulindac Sulfone]
[1]; read-out: IC50 Protease Activity
  IC50: 185 µM
[7]; read-out: IC50 Cell Viability
  IC50: 56.6 µM
